Results reported in patent publication US20240108607A1, “METHOD FOR MANUFACTURING NOVEL NITROGEN-CONTAINING COMPOUND OR SALT THEREOF AND MANUFACTURING INTERMEDIATE OF NOVEL NITROGEN-CONTAINING COMPOUND OR SALT THEREOF” (FUJIFILM Corporation, priority 2015, published 2024).
Like-named read-outs stand apart in the source and are kept apart here.

Columns and labels:
U87MG cells [1] = assay: Radioactivity concentration of labeled compounds in tumor, U87MG subcutaneous transplantation; assay type: in vivo, mice (Balb/c AJcl-nu/nu); conditions: caudal vein, 111In 740 kBq, 64Cu and 90Y 500 kBq
Experimental: Test Example 3 Evaluation based on radioactivity concentration of ^111In-labeled compound, ^64Cu-labeled compound, and ^90Y-labeled compound in tumor
After 2 to 3 weeks, at a point in time when the tumor volume became 200 to 500 mm^3, 3 mice were sorted into one group at each point in time. The ^111In-labeled compound (740 k Bq) was administered into the caudal vein, the animals were sacrificed after a certain period of time, and the tumor was extracted. The weight of the tumor was measured, the radioactivity was measured using a gamma counter, and the radioactivity concentration in tumor (% ID/g) was calculated. For the ^64Cu-labeled compound (500 k Bq) and the ^90Y-labeled compound (500 k Bq), the radioactivity concentration in tumor (% ID/g) was calculated by the same method.

[2] = Monkey blood kinetics and planar imaging; assay type: in vivo, crab-eating macaque
Experimental: Test Example 9 Imaging of Monkey by Using [^111In]-(Compound A)
(§1) Blood was collected from a crab-eating macaque over time, and by using [^111In]-(compound A), from the radioactivity concentration in the blood, kinetic parameters of the compound in blood were calculated by OLINDA/EXM 1.0. Furthermore, by using [^111In]-(compound A), from the organ distribution obtained by imaging, the absorbed dose of each organ obtained in a case where the compound is administered to a human being was calculated using OLINDA/EXM 1.0. [^111In]-(compound A) (98 MBq/9.3 μg) was administered to a crab-eating macaque (Hamri Co., Ltd., males, 3-year-old, 3.4 kg) under anesthesia. After the administration, blood was collected over time, and imaging was performed using a gamma camera. The blood was collected 10, 30, and 60 minutes after the administration and 2, 4, 5, 6, 24, 48, 72, and 144 hours after the administration. Regarding the imaging, after 1, 2, 4, 6, 24, 48, 72, and 144 hours, planar imaging was performed using a gamma camera (Symbia, Siemens Healthcare GmbH). Regarding the anesthesia, the animal was anesthetized with ketamine at 20 mg/kg before the administration of [^111In]-(compound A) and kept anesthetized until the end of imaging, which was continued for 6 hours after the administration, by inhalation anesthesia (isofluran 2 to 3%, 5 to 8 L/min). After 24 hours, ketamine (20 mg/kg) and xylazine (2 mg/kg) were administered to perform blood collection and imaging.
The kinetic parameters in blood are also shown below.
(§2) Furthermore, by using exposure dose analysis software OLINDA/EXM 1.0, the absorbed dose in a human being was simulated using each of the labeled compounds, and the results are shown below.

[3] = Absorbed dose in a human being simulated with OLINDA/EXM 1.0 from monkey organ distribution
Experimental: as §1, §2

[4] = Radiochemical purity after standing at room temperature (reversed-phase TLC); assay type: physicochemical
Experimental: A indium [^111In] chloride solution (80 MBq, 100 μL) was added to a mixture of the compound A (8.5 μg) and a 0.2 mol/L sodium acetate buffer solution (pH 4.0) (1.5 mL). The solution was heated to 100° C. for 15 minutes and then left to stand for 5 minutes at room temperature, thereby obtaining [^111In]-(compound A). […] The radiochemical purity measured immediately after the compound was prepared and measured after 24 hours at room temperature was equal to or higher than 95%.
A yttrium [^90Y] chloride solution (700 MBq, 240 μL) was added to a mixture of the compound (79 μg), gentisic acid (1.8 mg), a 0.6 mol/L sodium acetate buffer solution (pH 4.0, 120 μL), and 0.4 mol/L aqueous sodium hydroxide solution (24 μL). The solution was heated to 100° C. for 20 minutes and then left to stand for 5 minutes at room temperature, thereby obtaining [90^Y]-(compound A). […] The radiochemical purity measured immediately after the compound was prepared and measured after 24 hours at room temperature was equal to or higher than 95%.
A copper [^64Cu] chloride solution (pH 5, 35 MBq, 55 μL) was added to a mixture of the compound A (5.8 μg) and 0.2 mol/L sodium acetate buffer solution (pH 4.0, 219 μL). The solution was heated to 100° C. for 15 minutes and left to stand for 5 minute at room temperature, thereby obtaining [^64Cu]-(compound A). […] The radiochemical purity measured immediately after the compound was prepared and measured after 22 hours at room temperature was equal to or higher than 90%.
A 0.2 mol/L sodium acetate buffer solution of Copper [^64Cu] chloride (pH 4.0) (40 MBq, 155 μL) was added to a mixture of the compound B (4.2 μg), gentisic acid (1 mg), and a 0.2 mol/L sodium acetate buffer solution (pH 4.0) (5.0 μL). The solution was heated to 100° C. for 15 minutes and left to stand for 5 minutes at room temperature, thereby obtaining [^64Cu]-(compound B). […] The radiochemical purity measured immediately after the compound was prepared and measured after 24 hours at room temperature was equal to or higher than 90%.
(§3) A gallium [^67Ga] chloride solution (200 MBq, 63 μL) was added to a mixed solution of the compound A (21 μg), gentisic acid (1.0 mg), a 0.2 mol/L sodium acetate buffer solution (pH 4.0, 730.7 μL), and 4.5 mol/L aqueous sodium hydroxide solution (6.3 μL). The solution was heated to 100° C. for 15 minutes and then left to stand for 5 minutes at room temperature, thereby obtaining [^67Ga]-(compound A).
A lutetium [^177Lu] chloride solution (666 MBq, 333 μL) dissolved in a 0.2 mol/L sodium acetate buffer solution (pH 4.0) was added to a mixed solution of the compound A (70.0 μg), gentisic acid (1.8 mg), and a 0.2 mol/L sodium acetate buffer solution (pH 4.0, 83.3 μL). The solution was heated to 100° C. for 15 minutes and then left to stand for 5 minutes at room temperature, thereby obtaining [^177Lu]-(compound A).
as §3, with “(40” for “(200”, “11.7” for “63”, “B (4.1” for “A (21”, “4.5, 147.13” for “4.0, 730.7”, “(1.17” for “(6.3”, “B).” for “A).”

U87MG cells [5] = conditions: 1 time; for Number of animals showing regression: 8 animals; for Inhibition rate: 16 days after administration; for Tumor volume 16 days after administration / Tumor volume At the beginning of administration: Mean ± SD
Experimental: Test Example 7 Therapeutic Test on U87MG Subcutaneous Transplantation Model Using [^90Y]-(Compound A)
1×10^7 U87MG cells were transplanted into the subcutaneous space of the right flank of Balb/c Slc-nu/nu (males, 6-week-old, Japan SLC. Inc). After 2 weeks, the mice with a tumor having a volume of 100 to 500 mm^3 were grouped. A phosphate buffered saline (PBS) or [^90Y]-(compound A) was administered into the caudal vein, and the tumor volume was measured. At a point in time when the tumor volume of the mice of the PBS group exceeded 2,000 mm^3 which is a humane endpoint, the antitumor activity was evaluated.

[6] = system: T98G cell (human glioblastoma); assay: Therapeutic test on T98G subcutaneous transplantation model; assay type: in vivo, mice (Balb/c Slc-nu/nu); conditions: 1 time; for Number of animals showing regression: 6 animals; for Inhibition rate: 13 days after administration; for Tumor volume 13 days after administration / Tumor volume At the beginning of administration: Mean ± SD
Experimental: Test Example 8 Therapeutic Test on T98G Subcutaneous Transplantation Model Using [^90Y]-(Compound A)
After 77 days, at a point in time when the tumor volume reached 300 to 1,200 mm^3, the mice were grouped. […] The evaluation values were calculated by the same method as in Test Example 7, and the antitumor activity was evaluated.

## Cc1cc(OCCCC(=O)NCCNC(=O)C(CS(=O)(=O)O)NC(=O)CN2CCN(CC(=O)[O-])CCN(CC(=O)[O-])CCN(CC(=O)[O-])CC2)cc(C)c1S(=O)(=O)NC(CNC(=O)CCCCc1ccc2c(n1)NCCC2)C(=O)O.[111In+3] (stereo not shown) [[^111In]-(compound A)]
U87MG cells [1]
  Radioactivity concentration in tumor After 4 hours: 11.10 % ID/g
  Radioactivity concentration in tumor After 24 hours: 9.62 % ID/g
[2]; blood, 98 MBq/9.3 μg
  AUC: 0.22 % ID · h/mL
  CL: 2.17 mL/min/kg
  Cmax: 0.018 % ID/mL
  T½α: 0.46 h
  T½β: 19.3 h
  Vss: 3.52 L/kg
[2]; up to 6 hours after the administration
  integration into the bladder and the gall bladder (planar imaging): increased over time
[3]
  Absorbed dose Brain: 0.25 mGy/MBq
  Absorbed dose Kidney: 1.19 mGy/MBq
  Absorbed dose Liver: 0.19 mGy/MBq
  Absorbed dose Lung: 0.12 mGy/MBq
  Absorbed dose Red marrow: 0.05 mGy/MBq
  Absorbed dose Small intestine: 0.05 mGy/MBq
  Absorbed dose Whole body: 0.05 mGy/MBq
[4]
  radiochemical purity immediately after preparation and after 24 hours at room temperature: ≥ 95%

## Cc1cc(OCCCC(=O)NCCNC(=O)[C@H](CS(=O)(=O)O)NC(=O)CN2CCN(CC(=O)[O-])CCN(CC(=O)[O-])CCN(CC(=O)[O-])CC2)cc(C)c1S(=O)(=O)N[C@@H](CNC(=O)CCCCc1ccc2c(n1)NCCC2)C(=O)O.[177Lu+3] [[^177Lu]-(compound A)]
[4]; 3 hours
  radiochemical purity immediately after preparation and after 3 hours at room temperature: ≥ 95%

## Cc1cc(OCCCC(=O)NCCNC(=O)C(CS(=O)(=O)O)NC(=O)CN2CCN(CC(=O)[O-])CCN(CC(=O)[O-])CCN(CC(=O)[O-])CC2)cc(C)c1S(=O)(=O)NC(CNC(=O)CCCCc1ccc2c(n1)NCCC2)C(=O)O.[90Y+3] (stereo not shown) [[^90Y]-(compound A)]
U87MG cells [1]
  Radioactivity concentration in tumor After 4 hours: 12.52 % ID/g
  Radioactivity concentration in tumor After 24 hours: 15.29 % ID/g
U87MG cells [5]; 14.8 MBq
  Number of animals showing regression: 2
  Inhibition rate: 95%
  Tumor volume 16 days after administration: 429 ± 188 mm^3
  Tumor volume At the beginning of administration: 351 ± 72 mm^3
U87MG cells [5]; 22.2 MBq
  Number of animals showing regression: 2
  Inhibition rate: 97%
  Tumor volume 16 days after administration: 386 ± 142 mm^3
  Tumor volume At the beginning of administration: 343 ± 88 mm^3
[6]; 22.2 MBq
  Number of animals showing regression: 1
  Inhibition rate: 82%
  Tumor volume 13 days after administration: 882 ± 399 mm^3
  Tumor volume At the beginning of administration: 755 ± 293 mm^3
[6]; 29.6 MBq
  Number of animals showing regression: 3
  Inhibition rate: 97%
  Tumor volume 13 days after administration: 755 ± 313 mm^3
  Tumor volume At the beginning of administration: 736 ± 264 mm^3
[3]
  Absorbed dose Brain: 1.96 mGy/MBq
  Absorbed dose Kidney: 14.7 mGy/MBq
  Absorbed dose Liver: 1.12 mGy/MBq
  Absorbed dose Lung: 1.35 mGy/MBq
  Absorbed dose Red marrow: 0.06 mGy/MBq
  Absorbed dose Small intestine: 0.87 mGy/MBq
  Absorbed dose Whole body: 0.27 mGy/MBq
[4]
  radiochemical purity immediately after preparation and after 24 hours at room temperature: ≥ 95%

## Cc1cc(OCCCC(=O)NCCNC(=O)[C@H](CS(=O)(=O)O)NC(=O)CC[C@H](C(=O)O)N2CCN(CC(=O)[O-])CCN(CC(=O)[O-])CC2)cc(C)c1S(=O)(=O)N[C@@H](CNC(=O)CCCCc1ccc2c(n1)NCCC2)C(=O)O.[64Cu+2] [[^64Cu]-(compound B)]
U87MG cells [1]
  Radioactivity concentration in tumor After 4 hours: 11.19 % ID/g
  Radioactivity concentration in tumor After 24 hours: 8.53 % ID/g
[4]
  radiochemical purity immediately after preparation and after 24 hours at room temperature: ≥ 90%

## Cc1cc(OCCCC(=O)NCCNC(=O)[C@H](CS(=O)(=O)O)NC(=O)CC[C@H](C(=O)[O-])N2CCN(CC(=O)[O-])CCN(CC(=O)[O-])CC2)cc(C)c1S(=O)(=O)N[C@@H](CNC(=O)CCCCc1ccc2c(n1)NCCC2)C(=O)O.[67Ga+3] [[^67Ga]-(compound B)]
[4]; 5.5 hours
  radiochemical purity immediately after preparation and after 5.5 hours at room temperature: ≥ 95%

## Cc1cc(OCCCC(=O)NCCNC(=O)[C@H](CS(=O)(=O)O)NC(=O)CN2CCN(CC(=O)[O-])CCN(CC(=O)[O-])CCN(CC(=O)[O-])CC2)cc(C)c1S(=O)(=O)N[C@@H](CNC(=O)CCCCc1ccc2c(n1)NCCC2)C(=O)O.[67Ga+3] [[^67Ga]-(compound A)]
[4]; 3.5 hours
  radiochemical purity immediately after preparation and after 3.5 hours at room temperature: ≥ 95%
